Data set [1] has as its target T1, PRDX1 (Homo sapiens, UniProt Q06830).
T1 sequence (Q06830 1-199): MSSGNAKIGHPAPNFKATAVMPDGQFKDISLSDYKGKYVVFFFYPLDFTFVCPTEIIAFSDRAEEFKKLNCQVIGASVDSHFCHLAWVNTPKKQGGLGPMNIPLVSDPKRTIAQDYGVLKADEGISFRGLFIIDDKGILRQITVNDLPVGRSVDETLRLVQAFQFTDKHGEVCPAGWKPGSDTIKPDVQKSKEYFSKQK
Put plainly: SPR. Format: binding.

Data set [2] deals with T1, PRDX1. Put plainly: SPR with sodium palmitate. Format: binding.
Data set [3] deals with the molecule itself. The data set is described as follows: crystal structure.

One may read the Kd as the concentration at which binding is half-saturated. Lower therefore signals tighter binding. `O=C(/C=C/c1ccc(O)c(O)c1)O[C@H](Cc1ccc(O)c(O)c1)C(=O)O` [RA, rosmarinic acid] gave a Kd in data set [1] of 0.3757 ± 0.0025 µM.

In data set [2], `CCCCCCCCCCCCCCCC(=O)O` [PA, palmitic acid] displayed an equilibrium dissociation constant (Kd) of 75.3 ± 4.5 µM.

B1: PRDX1^C52SC83S (aa 1-175) (enzyme, human, UniProt Q06830 1-175, looked up)
chain: MSSGNAKIGHPAPNFKATAVMPDGQFKDISLSDYKGKYVVFFFYPLDFTFVSPTEIIAFSDRAEEFKKLNCQVIGASVDSHFSHLAWVNTPKKQGGLGPMNIPLVSDPKRTIAQDYGVLKADEGISFRGLFIIDDKGILRQITVNDLPVGRSVDETLRLVQAFQFTDKHGEVCPA
Turning to B1, the binding result in data set [3] was “binds”.

The values above are taken from PMC11724923 (Nature Communications, 2025).
